Data set [1] has as its target T1, Tg244440 (Toxoplasma gondii, UniProt A0A125YNC9).
T1 sequence (A0A125YNC9 1-462): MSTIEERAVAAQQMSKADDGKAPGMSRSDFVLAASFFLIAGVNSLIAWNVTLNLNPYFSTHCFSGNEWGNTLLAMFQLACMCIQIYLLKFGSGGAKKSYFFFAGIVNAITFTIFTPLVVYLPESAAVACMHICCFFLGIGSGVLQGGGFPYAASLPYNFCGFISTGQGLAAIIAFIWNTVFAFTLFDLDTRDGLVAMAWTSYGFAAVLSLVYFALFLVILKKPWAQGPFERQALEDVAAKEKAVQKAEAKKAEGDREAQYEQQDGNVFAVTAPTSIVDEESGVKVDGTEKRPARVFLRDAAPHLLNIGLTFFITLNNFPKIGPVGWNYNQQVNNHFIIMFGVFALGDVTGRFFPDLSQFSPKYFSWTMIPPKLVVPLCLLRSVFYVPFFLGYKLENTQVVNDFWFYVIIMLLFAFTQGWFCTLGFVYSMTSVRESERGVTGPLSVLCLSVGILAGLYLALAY
Description: [3H]-guanine uptake and its inhibition in T. brucei TbNB-KO procyclics expressing Tg244440 (clone F5). It is filed as cell-based. As to conditions: for ΔG^0 (Gibbs free energy of interaction): calculated from Km or Ki, ΔG0 = −RTln(Ki); for Ki: competition with 50 nM [3H]-guanine, 30 s, Cheng-Prusoff; for Summation of the Gibbs free energy of the proposed interactions (binding model), Σ: substrate binding model, Figure 5, for adenosine base group only. The method, then:
(§1) Briefly, PCF cells of T. brucei in logarithmic growth were harvested by centrifugation at 1000× g for 10 min, washed twice in AB and then resuspended in fresh buffer at a final density of 10^8 cells/mL. […] Immediately after finishing the assay, all tubes were flash-frozen in liquid nitrogen and the cell pellets were cut into scintillation vials and lysed with a solution of 2% SDS for one hour under agitation. Then, 3 mL of scintillation fluid (Scintilogic U, Lablogic) was added to each vial and left agitating overnight on a rocking platform. The next morning, the vials were vigorously shaken to ensure optimal mixing and the scintillation was measured in a 300SL (Hidex) scintillation counter. All assays were carried out in triplicate. All experimental data such as Km, Ki and Vmax values are the average and SEM of at least three separate experiments, each in triplicate, unless otherwise indicated.
(§2) Background scintillation was measured in vials containing no cells or radiolabeled substrate, and counts associated with extracellular radiolabel were calculated from samples where cells were briefly incubated with the same concentration of radiolabel, but in the presence of saturating concentrations of non-radiolabeled substrate before centrifugation through oil. The average of the three control replicates was subtracted from each data point.

In another data set the test system is T. gondii. As to conditions: cited from earlier work.
The next data set has as its target TgAT2. Set-up: method as in PMID 12865082. As to conditions: cited from earlier work; for Km: tachyzoites.
Another data set concerns O=c1[nH]cnc2nc[nH]c12. Description: cells, lysate or membranes. As to conditions: other: 0.10 µM [3H]-hypoxanthine, 30 s, Michaelis-Menten; pH 7.3.
Another data set concerns inosine transporter. As to conditions: tachyzoites; read-out: apparent Km; cited from earlier work.
The subject of the next data set is TgAT1. As to conditions: cited from earlier work.
A further data set concerns hENT1. Set-up: method as in PMID 23592612, PMID 6363411, PMID 10722669, PMID 8982282. As to conditions: cited from earlier work.
Data set [2] addresses T1, Tg244440. As to conditions: Xenopus laevis oocytes, 10 µM [3H]-adenosine; cited from earlier work.
Data set [3] has as its system human adenosine deaminase. More on the design: method as in PMID 23592612, PMID 6363411, PMID 10722669, PMID 8982282. As to conditions: cited from earlier work.
Data set [4] has as its system Tg244440. Format: cell-based, Toxoplasma gondii. As to conditions: 0.1 μM [3H]-permeant, 60 s, clones B11, F5 and G10. The method, then:
(§3) Figure 2 Uptake of radiolabelled nucleosides and nucleobases by in three clonal lines of T. brucei NB-KO procyclics, expressing Tg244440 in pHD1336. EV, empty vector control. Radiolabel concentration was 0.1 µM and uptake was measured over 60 s, in triplicate (average and SEM shown). Statistically significant differences between the control and the Tg244440-expressing cells were established using Student’s unpaired t-test. *, p < 0.05, **, p < 0.01, ***, p < 0.001.
as §1

The subject of a further data set is human adenosine kinase. More on the design: method as in PMID 23592612, PMID 6363411, PMID 10722669, PMID 8982282. As to conditions: cited from earlier work.
Data set [5] has as its system TbNBT-KO cells transfected with the empty vector (EV). Description: [3H]-guanine and [3H]-hypoxanthine uptake in TbNBT-KO cells transfected with the empty vector (EV). It is filed as cell-based, Trypanosoma brucei. As to conditions: for Rate of [3H]-hypoxanthine uptake, EV: empty vector cells. On the procedure: as §1, §2
Data set [6] concerns the target T1, Tg244440. It is filed as cell-based. As to conditions: 0.1 μM [3H]-permeant, 60 s, clones B11, F5 and G10. On the procedure: as §3, §1
Data set [7] has as its target T1, Tg244440. As to conditions: clone F5. The method, then: as §1, §2
In another data set the test system is TgNBT1. As to conditions: tachyzoites; cited from earlier work.
Substrate in data set [8]: Nc1nc2nc[nH]c2c(=O)[nH]1
Nature of the data set: [3H]-guanine uptake and its inhibition in T. brucei TbNB-KO procyclics expressing Tg244440 (clone F5). It is filed as cell-based, Toxoplasma gondii. As to conditions: other: 0.05 µM [3H]-guanine, 30 s, Michaelis-Menten; pH 7.3.

Setting [9] is: [Permeant] 0.1 μM, over 60 s, listed as hypoxanthine.
Setting [10] is: [Permeant] 1000 μM (unlabelled hypoxanthine to saturate the transporter).

These results are taken from article PMC8776092, “A Toxoplasma gondii Oxopurine Transporter Binds Nucleobases and Nucleosides Using Different Binding Modes” (International Journal of Molecular Sciences, 2022).

Several values for one entry are separate records, joined by “and”; a condition that tells them apart may be missing. Equal values may be shown once. Read-outs that look alike come from different tables or passages of the source.

As for `Nc1ncnc2c1ncn2[C@@H]1O[C@H](CO)[C@@H](O)[C@@H]1O` [Adenine arabinoside (Ara-A), Adenine arabinoside], on Tg244440 [1], the “Affinity for Tg244440 (in words)” value is given as “low affinity” and the “ΔG^0 (Gibbs free energy of interaction)” value is -4.78 kcal/mol. At Tg244440 [1] (read-out: Ki), the Ki (commonly a dissociation constant, usually derived from enzyme kinetics or from competition with a known ligand) amounted to 310 ± 14 µM. The “δ(ΔG^0) relative to Adenosine” value at Tg244440 [1] (relative to Adenosine) was 0.896 kcal/mol. For the same molecule, the “Activity against T. gondii (in words)” value in the data set on T. gondii is reported as “moderately active”. At TgAT2, the Ki was 2.9 µM.
On to Tg244440 (Toxoplasma gondii ME49), for which the Km (as a rule, the substrate concentration at which the rate is half of its maximum) in the data set with O=c1[nH]cnc2nc[nH]c12 was 1 µM and 0.79 ± 0.06 µM.
Molecule `O=c1[nH]cnc2c1ncn2[C@@H]1O[C@H](CO)[C@@H](O)[C@H]1O` [Inosine] gave a Ki on Tg244440 [1] (Ki) of 4.05 ± 1.37 µM. Further, the “ΔG^0 (Gibbs free energy of interaction)” value at Tg244440 [1] was -7.36 kcal/mol. At Tg244440 [1] (relative to Hypoxanthine), the “δ(ΔG^0) relative to Hypoxanthine” value was determined as 0.335 kcal/mol. Further, the Km in the data set with TgAT2 was 0.77 µM; with inosine transporter, 81 µM; with TgAT1 (for its substrates), above 100 µM.
Turning to `Nc1ncnc2c1ncn2[C@@H]1O[C@H](CO)[C@@H](O)[C@H]1O` [Adenosine], the Km with hENT1 was 40 to 60 µM; at Tg244440 [2], 114 ± 37 µM; with TgAT2, 0.49 µM; in data set [3] it was 49 µM; in the data set on human adenosine kinase, 0.2 to 0.4 µM; in the data set on TgAT1 (adenosine transport) it was 120 µM. For the same molecule, in the data set on TgAT1 (for its substrates), the Km was above 100 µM. Moreover, the “Affinity for Tg244440 (in words)” value on Tg244440 [1] was “Low affinity”. At Tg244440 [1] (Ki), this molecule registered an inhibition constant Ki of 68.2 ± 2.86 µM. Further, at Tg244440 [1], the “ΔG^0 (Gibbs free energy of interaction)” value was -5.69 kcal/mol. Further, the “Fold higher affinity than adenine” value at Tg244440 [1] (ratio of Ki values) was determined as 6 fold. The “Fold lower affinity than inosine and guanosine” value on Tg244440 [1] (ratio of Ki values) is given as “about 20 fold”. The “δ(ΔG^0) relative to Adenine” value is -1.08 kcal/mol at Tg244440 [1] and 1.08 kcal/mol on Tg244440 [1] (listed as adenosine). The “Summation of the Gibbs free energy of the proposed interactions (binding model), Σ” value on Tg244440 [1] was -4.97 kcal/mol. Besides, in the data set with Tg244440 [4], the “Uptake of radiolabelled permeant in Tg244440 clones compared to empty vector” value is “No difference”.
Regarding `O=c1[nH]cnc2nc[nH]c12` [Hypoxanthine], the “Slope of uptake in EV control lower than in +Tg244440 clone F5” value in data set [5] (0.10 µM [3H]-hypoxanthine over 60 s) amounted to 86.2%. Further, the “Rate of [3H]-hypoxanthine uptake, EV” value was 0.0066 ± 0.0007 pmol(10^7 Cells)^−1s^−1 in data set [5] ([Permeant] 0.1 μM, over 60 s); 0.0066 pmol(10^7 Cells)^−1s^−1 in data set [5] (setting [9]); 0.00055 pmol(10^7 Cells)^−1s^−1 in [5] (setting [10]). This molecule registered a Ki on Tg244440 [1] (Ki) of 2.26 ± 0.36 µM. The “Sum of δ(ΔG^0) for the 7-deaza and 9-deaza analogues” value at Tg244440 [1] (analogues of the named nucleobase) stood at 15.8 kJ/mol. In addition, the “ΔG^0 (Gibbs free energy of interaction)” value at Tg244440 [1] is -7.7 kcal/mol. Moreover, the “δ(ΔG^0) relative to Guanine” value at Tg244440 [1] (relative to Guanine) stood at 0.359 kcal/mol. In addition, the “Summation of the Gibbs free energy of the proposed interactions (binding model), Σ” value at Tg244440 [1] is -8.01 kcal/mol. The “Uptake of radiolabelled permeant in Tg244440 clones compared to empty vector” value on Tg244440 [6] is given as “highly significant increases”. For the same molecule, the “Rate of [3H]-hypoxanthine uptake, +Tg244440” value on Tg244440 [7] ([Permeant] 0.1 μM, over 60 s) was 0.048 ± 0.0004 pmol(10^7 Cells)^−1s^−1; on Tg244440 [7] (setting [9]) it was 0.048 pmol(10^7 Cells)^−1s^−1; at Tg244440 [7] (setting [10]), −0.01 ± 0.01 pmol(10^7 Cells)^−1s^−1. For the same molecule, in the data set on TgNBT1, the Km is 0.91 µM.

B1: Tg244440 (Toxoplasma gondii ME49) (protein)
chain: MSTIEERAVAAQQMSKADDGKAPGMSRSDFVLAASFFLIAGVNSLIAWNVTLNLNPYFSTHCFSGNEWGNTLLAMFQLACMCIQIYLLKFGSGGAKKSYFFFAGIVNAITFTIFTPLVVYLPESAAVACMHICCFFLGIGSGVLQGGGFPYAASLPYNFCGFISTGQGLAAIIAFIWNTVFAFTLFDLDTRDGLVAMAWTSYGFAAVLSLVYFALFLVILKKPWAQGPFERQALEDVAAKEKAVQKAEAKKAEGDREAQYEQQDGNVFAVTAPTSIVDEESGVKVDGTEKRPARVFLRDAAPHLLNIGLTFFITLNNFPKIGPVGWNYNQQVNNHFIIMFGVFALGDVTGRFFPDLSQFSPKYFSWTMIPPKLVVPLCLLRSVFYVPFFLGYKLENTQVVNDFWFYVIIMLLFAFTQGWFCTLGFVYSMTSVRESERGVTGPLSVLCLSVGILAGLYLALAY
Regarding B1, the Km in data set [8] is 1 µM.
